The results in this text go back to patent US20220395555A1, “Derivatives of antibiotics” (priority 2020, published 2022).

The subject of the test is resistant strains of fungi (Candida spp., Microsporium, Trich. mentagrophytes, Aspergillus niger). The experiment in a line: Antifungal activity on the resistant strains. The class given is cell-based. The note with it: resistant fungal strains.

The structures appear in SMILES notation.

Regarding `C[C@@H]1[C@H](O)[C@@H](C)/C=C/C=C/C=C/C=C/C=C/C=C/C=C/[C@H](O[C@@H]2O[C@H](C)[C@@H](O)[C@H](N)[C@@H]2O)C[C@@H]2O[C@](O)(C[C@@H](O)C[C@@H](O)[C@H](O)CC[C@@H](O)C[C@@H](O)CC(=O)O[C@H]1C)C[C@H](O)[C@H]2C(=O)O` [amphotericin], the “antifungal activity, in words” value was “did not exert antifungal activity”.
On to `C[C@@H]1[C@H](O)[C@@H](C)/C=C/C=C/CC/C=C/C=C/C=C/C=C/C(O[C@H]2O[C@H](C)[C@@H](O)[C@H](N)[C@@H]2O)CC2O[C@](O)(CC(O)C(O)CCC(O)CC(O)CC(O)CC(=O)O[C@H]1C)CC(O)C2C(=O)O` (some centres unmarked) [nystatin], for which the “antifungal activity, in words” value is “did not exert antifungal activity”.
